Assay results reported in the supplement of paper PMC10307832.

Key:
Assay in all cases: relative viability (nuclei count vs DMSO), 5 days (fraction); higher = more cells survive
Omipalisib + Palbociclib = compound: COc1ncc(-c2ccc3nccc(-c4ccnnc4)c3c2)cc1NS(=O)(=O)c1ccc(F)cc1F [Omipalisib] + CC(=O)c1c(C)c2cnc(Nc3ccc(N4CCNCC4)cn3)nc2n(C2CCCC2)c1=O [Palbociclib] (partner 0.5 µM)
Method in brief: (§1)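 Medians of duplicate plates are given as relative viability. That measure is the nuclei count in treated wells divided by the count in vehicle wells. Counts were taken on 4× images of lung cancer cell lines in 1536-well plates, 5 days after pin-tool dosing the day after seeding with one drug alone or a fixed anchor-drug dose plus five library-drug doses (not always all listed) in √10 steps.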

Omipalisib + Lapatinib = compound: COc1ncc(-c2ccc3nccc(-c4ccnnc4)c3c2)cc1NS(=O)(=O)c1ccc(F)cc1F [Omipalisib] + CS(=O)(=O)CCNCc1ccc(-c2ccc3ncnc(Nc4ccc(OCc5cccc(F)c5)c(Cl)c4)c3c2)o1 [Lapatinib] (partner 2 µM)
Method in brief: as §1

Omipalisib + Pictilisib = compound: COc1ncc(-c2ccc3nccc(-c4ccnnc4)c3c2)cc1NS(=O)(=O)c1ccc(F)cc1F [Omipalisib] + CS(=O)(=O)N1CCN(Cc2cc3nc(-c4cccc5[nH]ncc45)nc(N4CCOCC4)c3s2)CC1 [Pictilisib] (partner 1 µM)
Method in brief: as §1

Omipalisib + Alpelisib = compound: COc1ncc(-c2ccc3nccc(-c4ccnnc4)c3c2)cc1NS(=O)(=O)c1ccc(F)cc1F [Omipalisib] + Cc1nc(NC(=O)N2CCC[C@H]2C(N)=O)sc1-c1ccnc(C(C)(C)C(F)(F)F)c1 [Alpelisib] (partner 2 µM)
Method in brief: as §1

Omipalisib + Phenformin = compound: COc1ncc(-c2ccc3nccc(-c4ccnnc4)c3c2)cc1NS(=O)(=O)c1ccc(F)cc1F [Omipalisib] + N=C(N)NC(=N)NCCc1ccccc1 [Phenformin] (partner 250 µM)
Method in brief: as §1

Omipalisib + Vorinostat = compound: COc1ncc(-c2ccc3nccc(-c4ccnnc4)c3c2)cc1NS(=O)(=O)c1ccc(F)cc1F [Omipalisib] + O=C(CCCCCCC(=O)Nc1ccccc1)NO [Vorinostat] (partner 1 µM)
Method in brief: as §1

Row | Cell Line | relative viability (Omipalisib + Palbociclib; first compound 0.0003 µM) | relative viability (Omipalisib + Palbociclib; first compound 0.003 µM) | relative viability (Omipalisib + Palbociclib; first compound 0.03 µM) | relative viability (Omipalisib + Lapatinib; first compound 0.0003 µM) | relative viability (Omipalisib + Lapatinib; first compound 0.003 µM) | relative viability (Omipalisib + Lapatinib; first compound 0.03 µM) | relative viability (Omipalisib + Pictilisib; first compound 0.0003 µM) | relative viability (Omipalisib + Pictilisib; first compound 0.003 µM) | relative viability (Omipalisib + Pictilisib; first compound 0.03 µM) | relative viability (Omipalisib + Alpelisib; first compound 0.0003 µM) | relative viability (Omipalisib + Alpelisib; first compound 0.003 µM) | relative viability (Omipalisib + Alpelisib; first compound 0.03 µM) | relative viability (Omipalisib + Phenformin; first compound 0.0003 µM) | relative viability (Omipalisib + Phenformin; first compound 0.003 µM) | relative viability (Omipalisib + Phenformin; first compound 0.03 µM) | relative viability (Omipalisib + Vorinostat; first compound 0.0003 µM) | relative viability (Omipalisib + Vorinostat; first compound 0.003 µM) | relative viability (Omipalisib + Vorinostat; first compound 0.03 µM)
1 | RERF-LC-KJ | 1.04 | 0.846 | 0.555 | 0.773 | 0.572 | 0.632 | 0.488 | 0.463 | 0.397 | 0.865 | 0.583 | 0.627 | 0.416 | 0.371 | 0.28 | 0.627 | 0.52 | 0.424
2 | HCC-78 | 0.48 | 0.411 | 0.414 | 0.329 | 0.567 | 0.386 | 0.198 | 0.183 | 0.189 | 0.297 | 0.296 | 0.193 | 0.683 | 0.571 | 0.282 | 0.334 | 0.337 | 0.246
3 | NCI-H1755 | 0.428 | 0.421 | 0.362 | 1.04 | 0.924 | 0.783 | 0.426 | 0.353 | 0.344 | 0.949 | 0.878 | 0.514 | 0.625 | 0.522 | 0.457 | 0.747 | 0.738 | 0.517
4 | HCC-366 | 0.329 | 0.202 | 0.0493 | 0.898 | 0.496 | 0.186 | 0.137 | 0.1 | 0.0924 | 0.352 | 0.182 | 0.103 | 0.625 | 0.263 | 0.181 | 0.394 | 0.223 | 0.113
5 | NCI-H2405 | 0.507 | 0.392 | 0.312 | 0.949 | 0.6 | 0.303 | 0.433 | 0.389 | 0.355 | 0.79 | 0.633 | 0.359 | 0.401 | 0.285 | 0.184 | 1 | 0.667 | 0.418
6 | COR-L 105 | 0.406 | 0.432 | 0.415 | 0.37 | 0.334 | 0.313 | 0.349 | 0.356 | 0.299 | 0.944 | 0.837 | 0.601 | 0.468 | 0.458 | 0.289 | 0.853 | 0.809 | 0.568
7 | NCI-H1395 | 0.623 | 0.563 | 0.464 | 0.983 | 0.783 | 0.608 | 0.92 | 0.516 | 0.585 | 1 | 0.906 | 0.7 | 0.414 | 0.403 | 0.393 | 0.716 | 0.525 | 0.523
8 | NCI-H1915 | 0.509 | 0.483 | 0.446 | 0.957 | 0.945 | 1 | 1.03 | 0.866 | 0.862 | 0.994 | 1.07 | 1.03 | 0.368 | 0.389 | 0.366 | 0.528 | 0.483 | 0.432
9 | ABC-1 | 0.603 | 0.482 | 0.364 | 0.994 | 1.02 | 0.769 | 0.72 | 0.628 | 0.533 | 0.734 | 0.879 | 0.677 | 0.221 | 0.234 | 0.224 | 1.04 | 0.76 | 0.692
10 | NCI-H1650 | 0.274 | 0.29 | 0.261 | 0.771 | 0.771 | 0.576 | 0.401 | 0.556 | 0.564 |  |  |  | 0.371 | 0.257 | 0.168 | 0.501 | 0.287 | 0.379
11 | PC-14 | 0.521 | 0.614 | 0.327 | 0.308 | 0.228 | 0.162 | 0.749 | 0.619 | 0.383 | 0.997 | 0.955 | 0.876 | 0.537 | 0.639 | 0.368 | 0.683 | 0.527 | 0.373
12 | NCI-H358 | 0.148 | 0.139 | 0.131 | 0.388 | 0.367 | 0.325 | 0.285 | 0.272 | 0.278 | 0.963 | 0.594 | 0.524 | 0.259 | 0.211 | 0.145 | 0.573 | 0.546 | 0.272
13 | EPLC-272H | 0.311 | 0.306 | 0.225 | 0.908 | 0.535 | 0.562 | 0.403 | 0.377 | 0.298 | 0.883 | 0.794 | 0.477 | 0.294 | 0.253 | 0.193 | 0.586 | 0.295 | 0.129
14 | HCC-15 | 0.748 | 0.614 | 0.521 | 0.81 | 0.779 | 0.795 | 0.698 | 0.599 | 0.702 | 0.922 | 0.73 | 0.789 | 0.427 | 0.372 | 0.306 | 0.816 | 0.651 | 0.489
15 | NCI-H1993 | 0.547 | 0.391 | 0.393 | 0.812 | 0.809 | 0.588 | 0.837 | 0.861 | 0.912 | 0.652 | 0.649 | 0.672 | 0.558 | 0.552 | 0.586 | 0.788 | 0.162 | 0.378
16 | NCI-H1792 | 0.636 | 0.424 | 0.27 | 0.864 | 0.88 | 0.301 | 0.281 | 0.278 | 0.129 | 0.664 | 0.6 | 0.236 | 0.351 | 0.115 | 0.0784 |  |  | 
17 | LCLC-103H | 0.481 | 0.479 | 0.356 |  |  |  | 0.615 | 0.665 | 0.531 | 0.96 | 0.889 | 0.643 | 0.319 | 0.29 | 0.174 | 0.848 | 0.554 | 0.43
18 | NCI-H441 | 0.213 | 0.19 | 0.139 |  |  |  | 0.428 | 0.354 | 0.351 | 0.585 | 0.588 | 0.441 | 0.703 | 0.659 | 0.318 | 0.783 | 0.526 | 0.399
